Experimental data reported in ChEMBL document CHEMBL5370621, “Design, Synthesis, and Biological Evaluation of Novel Thioureidobenzamide (TBA) Derivatives as HBV Capsid Assembly Modulators” (J Med Chem, 2023).
Activity calls are given as the source filed them. No cut-off for these calls is given here.

Tests used:
Hepatitis B virus [1] = assay: Antiviral activity against Hepatitis B virus infected in human HePAD38 cells assessed as inhibition of viral DNA replication by qPCR analysis; assay type: functional, organism-based
[2] = Selectivity index, ratio of CC50 for cytotoxicity against human HePAD38 cells to EC50 for antiviral activity against Hepatitis B virus infected in human HePAD38 cells; assay type: toxicity, cell-based; conditions: read-out: Ratio CC50/EC50
Core antigen = Core antigen (Hepatitis B virus, UniProt Q03732); assay: Inhibition of fluorescent-labeled capsid assembly in Hepatitis B virus incubated for 1 hr by fluorescence based analysis
[3] = Cytotoxicity against human HePAD38 cells assessed as reduction in cell viability incubated for 72 hrs by CCK8 assay; assay type: toxicity, cell-based
[4] = Intrinsic clearance in human liver microsomes at 100 uM preincubated for 10 mins followed by incubation with NADPH regenerating system for 30 mins and measured per mg protein by LC-MS/MS analysis; assay type: ADME, Microsome; conditions: time 40 min, read-out: CLH
[5] = Cytotoxicity against human HLCZ01 cells assessed as reduction in cell viability upto 30 uM incubated for 72 hrs by CCK8 assay; assay type: toxicity, cell-based; conditions: hlcz01, 72 h
[6] = AUC(0 to t) in Sprague-Dawley rat at 2 mg/kg, iv by LC-MS/MS analysis; assay type: ADME, organism-based; design: dose 2 mg/kg, route iv; conditions: in vivo
Hepatitis B virus [7] = assay: Antiviral activity against Hepatitis B virus infected in C57BL/6J mouse assessed as reduction in HBsAg level in serum at 25 mg/kg/day, po for 18 days by ELISA; assay type: functional, organism-based; conditions: time 18.0 day
[8] = Half life in Sprague-Dawley rat at 20 mg/kg, po by LC-MS/MS analysis; assay type: ADME, organism-based; conditions: in vivo
[9] = Volume of distribution at steady state in Sprague-Dawley rat at 2 mg/kg, iv by LC-MS/MS analysis; assay type: ADME, organism-based; conditions: in vivo
[10] = Half life in human liver microsomes at 100 uM preincubated for 10 mins followed by incubation with NADPH regenerating system for 30 mins by LC-MS/MS analysis; assay type: ADME, Microsome; conditions: time 40 min
[11] = MRT(0 to infinity) in Sprague-Dawley rat at 20 mg/kg, po by LC-MS/MS analysis; assay type: ADME, organism-based; conditions: in vivo
[12] = Half life in Sprague-Dawley rat at 2 mg/kg, iv by LC-MS/MS analysis; assay type: ADME, organism-based; conditions: in vivo
[13] = Cmax in Sprague-Dawley rat at 20 mg/kg, po by LC-MS/MS analysis; assay type: ADME, organism-based; design: dose 20 mg/kg, route po; conditions: in vivo
[14] = Metabolic stability of the compound in human liver microsomes assessed as parent compound remaining at 100 uM incubated for 60 mins in presence of NADPH by LC-MS/MS analysis; assay type: ADME, Microsome; conditions: read-out: Stability
[15] = MRT(0 to t) in Sprague-Dawley rat at 20 mg/kg, po by LC-MS/MS analysis; assay type: ADME, organism-based; conditions: in vivo
[16] = Half life in human plasma at 100 uM by LC-MS/MS analysis; assay type: ADME, cell-free
[17] = Tmax in Sprague-Dawley rat at 20 mg/kg, po by LC-MS/MS analysis; assay type: ADME, organism-based; conditions: in vivo
Hepatitis B virus [18] = assay: Antiviral activity against Hepatitis B virus infected in C57BL/6J mouse assessed as reduction in HBcAg expression […] at 25 mg/kg/day, po for 18 days by immunohistochemistry; assay type: functional, organism-based; conditions: time 18.0 day
[19] = Metabolic stability of the compound in human liver microsomes assessed as parent compound remaining at 100 uM incubated for 60 mins in absence of NADPH by LC-MS/MS analysis; assay type: ADME, Microsome; conditions: read-out: Stability
[20] = AUC(0 to infinity) in Sprague-Dawley rat at 2 mg/kg, iv by LC-MS/MS analysis; assay type: ADME, organism-based; design: dose 2 mg/kg, route iv; conditions: in vivo
[21] = MRT(0 to t) in Sprague-Dawley rat at 2 mg/kg, iv by LC-MS/MS analysis; assay type: ADME, organism-based; conditions: in vivo
[22] = AUC(0 to infinity) in Sprague-Dawley rat at 20 mg/kg, po by LC-MS/MS analysis; assay type: ADME, organism-based; design: dose 20 mg/kg, route po; conditions: in vivo
[23] = Cmax in Sprague-Dawley rat at 2 mg/kg, iv by LC-MS/MS analysis; assay type: ADME, organism-based; design: dose 2 mg/kg, route iv; conditions: in vivo
Hepatitis B virus [24] = assay: Antiviral activity against Hepatitis B virus infected in human HLCZ01 cells assessed as reduction in HBsAg level at 0.03 to 3 uM incubated for 6 days by ELISA; assay type: functional, organism-based; conditions: dose 0.03-3 µM, time 6.0 day
[25] = Hepatotoxicity in C57BL/6J mouse infected with Hepatitis B virus assessed as serum AST level at 25 mg/kg/day, po for 18 days by colorimetry; assay type: toxicity, organism-based; conditions: in vivo, 432 h, time 18 day
Hepatitis B virus [26] = assay: Antiviral activity against Hepatitis B virus infected in human HLCZ01 cells assessed as inhibition of HBV virion production by measuring inhibition of viral DNA replication incubated for 6 days by qPCR analysis; assay type: functional, organism-based
[27] = AUC(0 to t) in Sprague-Dawley rat at 20 mg/kg, po by LC-MS/MS analysis; assay type: ADME, organism-based; design: dose 20 mg/kg, route po; conditions: in vivo
Hepatitis B virus [28] = assay: Antiviral activity against Hepatitis B virus infected in C57BL/6J mouse assessed as inhibition of viral DNA level in serum at 25 mg/kg/day, po for 18 days by qPCR analysis; assay type: functional, organism-based; conditions: time 18.0 day
[29] = Oral bioavailability in Sprague-Dawley rat at 20 mg/kg by LC-MS/MS analysis; assay type: ADME, organism-based; conditions: in vivo
[30] = Hepatotoxicity in C57BL/6J mouse infected with Hepatitis B virus assessed as serum ALT level at 25 mg/kg/day, po for 18 days by colorimetry; assay type: toxicity, organism-based; conditions: in vivo, 432 h, time 18 day

Chain of Core antigen (Q03732 whole entry): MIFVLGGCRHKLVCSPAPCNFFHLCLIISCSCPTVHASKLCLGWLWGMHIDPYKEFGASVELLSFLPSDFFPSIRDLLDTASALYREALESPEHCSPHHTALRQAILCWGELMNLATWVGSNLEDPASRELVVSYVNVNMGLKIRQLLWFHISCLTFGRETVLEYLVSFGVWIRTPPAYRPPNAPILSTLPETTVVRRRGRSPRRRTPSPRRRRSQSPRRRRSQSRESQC

Compound: O=C(Nc1cc(F)c(F)c(F)c1)c1ccc(F)c(S(=O)(=O)N2CCC(O)CC2)c1
- EC50 (Hepatitis B virus [1]): 350 nM
- selectivity ratio [2]: 47.6
- IC50 (Core antigen): 1530 nM
- CC50 at 72 h [3]: 16700 nM

Compound: O=C(O)Cc1ccccc1Nc1c(Cl)cccc1Cl [DICLOFENAC]
- microsomal CLint at 100 µM [4]: 257 µL/min/mg

Compound: Cc1cc(NC(=O)c2cc(NC(=S)NC(C)C)c(F)cc2Br)ccc1F
- EC50 (Hepatitis B virus [1]): 140 nM
- selectivity ratio [2]: > 714
- IC50 (Core antigen): 940 nM
- CC50 at 72 h [3]: > 100000 nM

Compound: CCOC(=O)C1=C(CN2CCOCC2)NC(c2nccs2)=N[C@H]1c1ccc(C)cc1Br
- EC50 (Hepatitis B virus [1]): 17 nM
- selectivity ratio [2]: > 5920
- IC50 (Core antigen): 860 nM
- CC50 at 72 h [3]: > 100000 nM

Compound: C=CCNC(=S)Nc1cc(C(=O)Nc2ccc(F)c(C)c2)c(C)cc1F
- Activity [5]: Non-Toxic
- EC50 (Hepatitis B virus [1]): 12 nM
- selectivity ratio [2]: 2210
- AUC(0-t) [6]: 3260 ng·h/mL
- Activity (Hepatitis B virus [7]): inactive
- half-life [8]: 1.67 h
- Vdss [9]: 0.51 L/kg
- half-life at 100 µM [10]: 0.635 h
- MRT inf [11]: 3.26 h
- half-life [12]: 0.98 h
- IC50 (Core antigen): 880 nM
- Cmax [13]: 4770 ng/mL
- remaining at 1 h, 100 µM [14]: 31.2%
- MRT last [15]: 3.16 h
- half-life at 100 µM [16]: 0.9 h
- Tmax [17]: 1.83 h
- Activity (Hepatitis B virus [18]): Active
- remaining at 1 h, 100 µM [19]: 72.6%
- AUC(0-inf) [20]: 3260 ng·h/mL
- MRT last [21]: 0.82 h
- AUC(0-inf) [22]: 22000 ng·h/mL
- microsomal CLint at 100 µM [4]: 36.4 µL/min/mg
- Cmax [23]: 5390 ng/mL
- Activity (Hepatitis B virus [24]): inactive
- CC50 at 72 h [3]: 26600 nM
- Activity [25]: Non-Toxic
- EC50 (Hepatitis B virus [26]; HLCZ01, 144 h): 33 nM
- Activity (Hepatitis B virus [26]; time 6.0 day): Dose-Dependent Effect
- AUC(0-t) [27]: 22000 ng·h/mL
- Activity (Hepatitis B virus [28]): Active
- bioavailability [29]: 67.7%
- Activity [30]: Non-Toxic

Compound: Cc1cc(NC(=O)c2cc(NC(=S)NCc3ccc(B(O)O)cc3)c(F)cc2C)ccc1F
- EC50 (Hepatitis B virus [1]): 10 nM
- selectivity ratio [2]: 595
- CC50 at 72 h [3]: 5950 nM

Compound: COc1ccc(CNC(=O)Nc2cc(C(=O)Nc3ccc(F)c(C)c3)c(Br)cc2F)cc1
- EC50 (Hepatitis B virus [1]): 87 nM
- selectivity ratio [2]: 56.1
- CC50 at 72 h [3]: 4880 nM

Compound: Cc1cc(NC(=O)c2cc(NC(=O)C(=O)NC(C)C)c(F)cc2Br)ccc1F
- EC50 (Hepatitis B virus [1]): 200 nM
- selectivity ratio [2]: > 496
- CC50 at 72 h [3]: > 100000 nM

Compound: COCCC(=O)Nc1cc(C(=O)Nc2ccc(F)c(C)c2)c(Br)cc1F
- EC50 (Hepatitis B virus [1]): 3550 nM
- selectivity ratio [2]: 27.4
- CC50 at 72 h [3]: 97400 nM

Compound: Cc1cc(NC(=O)c2cc(NC(=O)C3CC3)c(F)cc2Br)ccc1F
- EC50 (Hepatitis B virus [1]): 540 nM
- selectivity ratio [2]: 155
- CC50 at 72 h [3]: 84000 nM

Compound: O=C(Nc1cc(F)cc(F)c1)c1cc(S(=O)(=O)NC2CCCC2)c(F)cc1Br
- EC50 (Hepatitis B virus [1]): 810 nM
- selectivity ratio [2]: > 123
- CC50 at 72 h [3]: > 100000 nM

Compound: Cc1cc(NC(=O)c2cc(NC(=O)c3ccc(Br)cc3)c(F)cc2Br)ccc1F
- EC50 (Hepatitis B virus [1]): 190 nM
- selectivity ratio [2]: 12.6
- CC50 at 72 h [3]: 2400 nM

Compound: Cc1cc(NC(=O)c2cc(NC(=O)NCc3cccnc3)c(F)cc2Br)ccc1F
- EC50 (Hepatitis B virus [1]): 500 nM
- selectivity ratio [2]: > 200
- CC50 at 72 h [3]: > 100000 nM

Compound: O=C(Nc1ccc(F)c(Cl)c1)c1cc(S(=O)(=O)N[C@H]2CCOC2)c(F)cc1Br
- EC50 (Hepatitis B virus [1]): 940 nM
- selectivity ratio [2]: 21.9
- CC50 at 72 h [3]: 20600 nM
